Activity calls are given as the source filed them. No cut-off for these calls is given here.
Legend:
CAKI-1 [1] = experiment: Inhibition of cell growth in human CAKI-1 cells incubated for 48 hrs by SRB assay; format: functional, cell-based; conditions: CAKI-1, 48 h
K562 [2] = experiment: Induction of DNA damage in human K562 cells assessed as olive tail moment level at 700 nM incubated for 24 hrs by comet assay (reference value: 0.2); format: functional
MCF7 = experiment: Anticancer activity against human MCF7 cells assessed as cell growth at 10^-5 M incubated for 48 hrs by SRB assay relative to control; format: functional; conditions: MCF7, 48 h, dose 1 10^-5M, read-out: Activity
[3] = Antiproliferative activity against human HaCaT cells assessed as inhibition of cell proliferation measured after 72 hrs by MTT assay; format: toxicity, cell-based
NCI-H522 = experiment: Anticancer activity against human NCI-H522 cells assessed as cell growth at 10^-5 M incubated for 48 hrs by SRB assay relative to control; format: functional; conditions: NCI-H522, 48 h, dose 1 10^-5M, read-out: Activity
T47D [4] = experiment: Inhibition of cell growth in human T47D cells incubated for 48 hrs by SRB assay; format: functional, cell-based
KM12 = experiment: Inhibition of cell growth in human KM12 cells incubated for 48 hrs by SRB assay; format: functional, cell-based; conditions: KM12, 48 h
LOX IMVI [5] = experiment: Inhibition of cell growth in human LOX IMVI cells incubated for 48 hrs by SRB assay; format: functional, cell-based
K562 [6] = experiment: Anticancer activity against human K562 cells assessed as cell growth at 10^-5 M incubated for 48 hrs by SRB assay relative to control; format: functional; conditions: K562, 48 h, dose 1 10^-5M, read-out: Activity
K562 [7] = experiment: Induction of DNA damage in human K562 cells assessed as olive tail moment level at 70 nM incubated for 24 hrs by comet assay (reference value: 0.2); format: functional
SW-620 = experiment: Inhibition of cell growth in human SW-620 cells incubated for 48 hrs by SRB assay; format: functional, cell-based; conditions: SW-620, 48 h
NCI-H460 [8] = experiment: Inhibition of cell growth in human NCI-H460 cells incubated for 48 hrs by SRB assay; format: functional, cell-based; conditions: NCI-H460, 48 h
[9] = Selectivity index, ratio of IC50 for […] to IC50 for human K562 cells; format: functional
HCT-15 = experiment: Inhibition of cell growth in human HCT-15 cells incubated for 48 hrs by SRB assay; format: functional, cell-based; conditions: HCT-15, 48 h
K562 [10] = experiment: Induction of DNA damage in human K562 cells assessed as tail DNA level at 700 nM incubated for 24 hrs by comet assay (reference value: 0.5 to 0.6 %); format: functional
NCI-H460 [11] = experiment: Anticancer activity against human NCI-H460 cells assessed as cell growth at 10^-5 M incubated for 48 hrs by SRB assay relative to control; format: functional; conditions: NCI-H460, 48 h, dose 1 10^-5M, read-out: Activity
K562 [12] = experiment: Induction of pro-apoptotic morphological changes in human K562 cells assessed as cell shrinkage at 700 nM incubated for 24 hrs by Hoescht-33342 staining based analysis; format: functional
M14 [13] = experiment: Anticancer activity against human M14 cells assessed as cell growth at 10^-5 M incubated for 48 hrs by SRB assay relative to control; format: functional; conditions: M14, 48 h, dose 1 10^-5M, read-out: Activity
K562 [14] = experiment: Induction of pro-apoptotic morphological changes in human K562 cells assessed as nucleus fragmentation at 700 nM incubated for 24 hrs by Hoescht-33342 staining based analysis; format: functional, cell-based
SF-295 = experiment: Anticancer activity against human SF-295 cells assessed as cell growth at 10^-5 M incubated for 48 hrs by SRB assay relative to control; format: functional; conditions: SF-295, 48 h, dose 1 10^-5M, read-out: Activity
UACC-62 [15] = experiment: Inhibition of cell growth in human UACC-62 cells incubated for 48 hrs by SRB assay; format: functional, cell-based; conditions: UACC-62, 48 h
[16] = Antiproliferative activity against NIH3T3 cells assessed as inhibition of cell proliferation measured after 72 hrs by MTT assay; format: toxicity, cell-based; conditions: mouse
K562 [17] = experiment: Induction of DNA damage in human K562 cells assessed as fold increase in tail DNA level at 70 to 700 nM incubated for 24 hrs by comet assay relative to control; format: functional; conditions: dose 70-700 nM
K562 [18] = experiment: Induction of pro-apoptotic morphological changes in human K562 cells assessed as formation of apoptotic bodies at 700 nM incubated for 24 hrs by Hoescht-33342 staining based analysis; format: functional, cell-based
[19] = Antiproliferative activity against J774.2 cells assessed as inhibition of cell proliferation measured after 72 hrs by MTT assay; format: toxicity, cell-based; conditions: mouse
UACC-257 = experiment: Anticancer activity against human UACC-257 cells assessed as cell growth at 10^-5 M incubated for 48 hrs by SRB assay relative to control; format: functional; conditions: UACC-257, 48 h, dose 1 10^-5M, read-out: Activity
T47D [20] = experiment: Anticancer activity against human T47D cells assessed as cell growth at 10^-5 M incubated for 48 hrs by SRB assay relative to control; format: functional; conditions: dose 1 10^-5M, read-out: Activity
K562 [21] = experiment: Induction of pro-apoptotic morphological changes in human K562 cells at 70 nM incubated for 24 hrs by Hoescht-33342 staining based analysis; format: functional, cell-based
SK-MEL-5 = experiment: Anticancer activity against human SK-MEL-5 cells assessed as cell growth at 10^-5 M incubated for 48 hrs by SRB assay relative to control; format: functional; conditions: SK-MEL-5, 48 h, dose 1 10^-5M, read-out: Activity
UACC-62 [22] = experiment: Anticancer activity against human UACC-62 cells assessed as cell growth at 10^-5 M incubated for 48 hrs by SRB assay relative to control; format: functional; conditions: UACC-62, 48 h, dose 1 10^-5M, read-out: Activity
K562 [23] = experiment: Induction of pro-apoptotic morphological changes in human K562 cells assessed as formation of cytoplasmic blebs at 700 nM incubated for 24 hrs by Hoescht-33342 staining based analysis; format: functional, cell-based
M14 [24] = experiment: Inhibition of cell growth in human M14 cells incubated for 48 hrs by SRB assay; format: functional, cell-based; conditions: M14, 48 h
LOX IMVI [25] = experiment: Anticancer activity against human LOX IMVI cells assessed as cell growth at 10^-5 M incubated for 48 hrs by SRB assay relative to control; format: functional; conditions: dose 1 10^-5M, read-out: Activity
K562 [26] = experiment: Inhibition of cell growth in human K562 cells incubated for 48 hrs by SRB assay; format: functional, cell-based; conditions: K562, 48 h
K562 [27] = experiment: Antiproliferative activity against human K562 cells assessed as inhibition of cell proliferation measured after 72 hrs by MTT assay; format: functional, cell-based; conditions: K562, 72 h
K562 [28] = experiment: Induction of DNA damage in human K562 cells assessed as fold increase in olive tail moment at 70 to 700 nM incubated for 24 hrs by comet assay relative to control; format: functional; conditions: dose 70-700 nM
K562 [29] = experiment: Induction of DNA damage in human K562 cells assessed as tail DNA level at 70 nM incubated for 24 hrs by comet assay (reference value: 0.5 to 0.6 %); format: functional
HCC 2998 = experiment: Anticancer activity against human HCC 2998 cells assessed as cell growth at 10^-5 M incubated for 48 hrs by SRB assay relative to control; format: functional; conditions: HCC 2998, 48 h, dose 1 10^-5M, read-out: Activity
CAKI-1 [30] = experiment: Anticancer activity against human CAKI-1 cells assessed as cell growth at 10^-5 M incubated for 48 hrs by SRB assay relative to control; format: functional; conditions: CAKI-1, 48 h, dose 1 10^-5M, read-out: Activity

SMILES	IC50 at 72 h [3] [nM]	growth at 10 µM (K562 [6]) [%]	IC50 (SW-620) [nM]	Ratio IC50 [9]	IC50 (HCT-15) [nM]	growth at 10 µM (NCI-H460 [11]) [%]	growth at 10 µM (M14 [13]) [%]	growth at 10 µM (SF-295) [%]	IC50 (UACC-62 [15]) [nM]	IC50 at 72 h [16] [nM]	IC50 at 72 h [19] [nM]	growth at 10 µM (SK-MEL-5) [%]	growth at 10 µM (UACC-62 [22]) [%]	IC50 (M14 [24]) [nM]	growth at 10 µM (LOX IMVI [25]) [%]	IC50 (K562 [26]) [nM]	IC50 (K562 [27]) [nM]	other results
O=C(Nc1ncc(Cc2ccc(F)cc2)s1)c1ccc(-n2cnnn2)cc1	> 100000	23.2	118	101	347	25.5	34.3	25.9	56.9	> 100000	70700	10.6	19.2	261	26.3	56.4	700	IC50 (CAKI-1 [1]): 772 nM; Activity (K562 [2]): 1.4; growth at 10 µM (MCF7): 34.4%; growth at 10 µM (NCI-H522): 36.5%; IC50 (T47D [4]): 896 nM; IC50 (KM12): 927 nM; IC50 (LOX IMVI [5]): 206 nM; Activity (K562 [7]): 0.5; IC50 (NCI-H460 [8]): 993 nM; Activity (K562 [10]): 5.1%; Activity (K562 [12]): Active; Activity (K562 [14]): Active; fold change (FC) (K562 [17]): 2; Activity (K562 [18]): Active; growth at 10 µM (UACC-257): 32%; growth at 10 µM (T47D [20]): 23.2%; Activity (K562 [21]): inactive; Activity (K562 [23]): Active; fold change (FC) (K562 [28]): 2; Activity (K562 [29]): 1.1%
O=C(Nc1ncc(Cc2cc(Cl)ccc2Cl)s1)c1ccc(-n2cnnn2)cc1	> 100000	22.8	508	4.6	894	33	24.6	30.9	364	> 100000	34700	22.4	8.26	696	22.6	577	7570	growth at 10 µM (HCC 2998): 22.7%; growth at 10 µM (CAKI-1 [30]): 29%
